Counter-ions that a name gives are not always drawn.

The first series relates to H77/JFH-1 chimeric HCVcc. The series is described as follows: HCV cell culture (HCVcc) model, Renilla luciferase. It is filed as cell-based. The note with it: H77/JFH-1 HCVcc, Huh 7.5 cells, Renilla luciferase 72 hours post-infection.
The term EC50 denotes the concentration at which the effect is half-maximal. High values mean a need for much substance, low ones an effect from little substance. Turning to `C[C@@]1(O)[C@H](O)[C@@H](CO)O[C@H]1n1cnc2c(N)ncnc21` [Compound 2-CMA], it took 92 nM to reach a half-maximal effect (EC50).

Test system in a further series: not given
Experiment: not given
Settings: not given
By melting point is commonly meant the temperature of the solid-liquid transition. In turn, `Fc1ccc(CNc2nc(OCC(F)(F)F)nc(-c3ccccc3)n2)cc1` yielded a melting point of 170 to 172 °C.

In the case of `Fc1ccc(CNc2nc(NCc3ccccc3F)nc(OCC(F)(F)F)n2)cc1`, the melting point was 105 to 107 °C.

Turning to `Fc1ccc(CNc2nc(OCC(F)(F)F)nc(Oc3cccc(C(F)(F)F)c3)n2)cc1`, the melting point lay within 107 to 109 °C.

For the molecule `Fc1ccc(CNc2nc(OCc3ccccc3)nc(OCC(F)(F)F)n2)cc1`, the melting point fell in the range of 101 to 103 °C.

On to `CC(C)N1CCC(Nc2nc(NCc3ccc(F)cc3)nc(OCC(F)(F)F)n2)C1` (stereo not shown), for which the melting point lay within 98 to 99 °C.

The molecule `CCOc1nc(NCc2ccco2)nc(N2CCN(Cc3ccccn3)CC2)n1` showed a melting point of 115 to 117 °C.

`Cc1ccc(CNc2nc(OCC(F)(F)F)nc(Oc3cccc(C(F)(F)F)c3)n2)o1`: the melting point lay within 116 to 118 °C.

In the case of `Oc1ccc(Nc2nc(NCc3ccco3)nc(Oc3ccc(O)cc3)n2)cc1`, the melting point was in the range of 80 to 83 °C.

`Fc1ccc(CNc2nc(Nc3cccc(Cl)c3)nc(OCC(F)(F)F)n2)cc1` came in with a melting point of 148 to 150 °C.

In turn, `FC(F)(F)c1cccc(Nc2nc(NCc3ccco3)nc(OCc3ccncc3)n2)c1` gave a melting point of 124 to 126 °C.

Molecule `Oc1nc(NCc2ccc(F)cc2)nc(Nc2cccc(C(F)(F)F)c2)n1` came in with a melting point of 266 to 268 °C.

For the molecule `CCNc1nc(NCCN2CCCC2)nc(Nc2ccc(OC)cc2)n1` (as salt: hydrochloride), the melting point lay in the range of 29 to 31 °C.

Values taken from patent US20120009151A1, “Triazines And Related Compounds Having Antiviral Activity, Compositions And Methods Thereof” (priority 2007, published 2012).
